{"source": "patent US10251871B2", "about": "“Compositions and methods for treatment of edema” (Memorial Sloan Kettering Cancer Center, priority 2015, dated 2019)", "key": {"[1]": {"tested_on": "popliteal lymph node dissection (PLND) mouse model", "assay": "Popliteal lymph node dissection (PLND) hind limb model of lymphatic injury", "settings": "4 weeks after PLND", "source_text": "To enable analysis of the lymphatic collecting vessel pumping capacity we utilized a previously described mouse popliteal lymphadenectomy model. […] Briefly, the hind limb collecting vessels and popliteal lymph nodes were identified and the lymph nodes were excised with the popliteal fat pad. Beginning 2 weeks after surgery, animals were randomized to treatment with either 0.1% topical tacrolimus or vehicle control (petroleum jelly) twice daily for 2 weeks.\nNear infrared imaging (NIR) was performed using a modification of previously published results. […] Briefly, 15 μl (0.15 mg mL^−1) indocyanine green (ICG, Sigma-Aldrich, Saint Louis, Mo.) was injected intradermally in the web space of the dorsal hind limb and visualized using an EVOS EMCCD camera (Life Technologies, Carlsbad, Calif.) with a LED light source (CoolLED, Andover, United Kingdom). Static/video images were obtained using a Zeiss V12 Stereolumar microscope (Caliper Life Sciences, Hopkinton, Mass.) and lymphatic pumping function was analyzed using Fiji software (NIH, Bethesda, Md.) by identifying a region-of-interest over the dominant collecting vessel of the leg and subtracting the background fluorescent intensity plotted over time.\nImmunohistochemical staining was performed using our published methods. […] Briefly, tissues were fixed in 4% paraformaldehyde at 4° C., decalcified in 5% sodium EDTA (Santa Cruz Biotechnology, Dallas, Tex.), embedded in paraffin, and sectioned at 5 micrometers. Cut sections were rehydrated and heat-mediated antigen unmasking was performed using 90° C. sodium citrate (Sigma-Aldrich). Non-specific binding was blocked with 2% BSA/20% animal serum. Tissues were incubated overnight with primary antibody at 4° C. Primary antibodies used for immunohistochemical stains included goat anti-mouse LYVE-1, rat anti-mouse CD45, rabbit anti-mouse CD4, and rat anti-mouse F4/80 (all from R&D, Minneapolis, Minn.), rabbit anti-mouse CD3 (from Dako, Carpinteria, Calif.), Cy3-conjugated mouse anti-αSMA (from Sigma-Aldrich), rabbit anti-human IFN-γ, rabbit anti-mouse TGF-β1, rabbit anti-mouse p-SMAD3, rabbit anti-mouse collagen I, rabbit-anti-mouse iNOS, and hamster-anti-mouse podoplanin, rabbit anti-mouse HMGB-1 and HSP-70 (all from ABCAM, Cambridge, Mass.).\nImmunofluorescence staining was performed using AlexaFluor fluorophore-conjugated secondary antibodies (Life Technologies, Norwalk, Conn.). Images were scanned using Mirax imaging software (Carl Zeiss)."}, "[2]": {"tested_on": "hind limb collecting lymphatics of non-operated animals", "assay": "Non-operated (sham) hind limb, NIR lymphatic imaging", "assay_type": "in vivo, mice", "settings": "tacrolimus, non-operated animals (anesthesia only, no surgery)", "text": "Upper panels are representative images of NIR lymphatic images of the hind limb lymphatics in sham operated mice (i.e., anesthesia without incision or PLND) following treatment with control or topical tacrolimus for 2 weeks. Quantification of collecting lymphatic vessel pulsation frequency following 3 or 14 days of treatment with tacrolimus is shown below.\nThis is important since previous studies have shown that perilymphatic iNOS expression is an important regulator of collecting lymphatic pumping capacity. Liao et al., Proc. Natl. Acad. Sci. USA 108:18784-18789 (2011)."}, "[3]": {"tested_on": "circulating blood T cells", "assay": "Flow cytometry of peripheral blood T cells", "assay_type": "in vivo, mice", "experimental": "Flow cytometry was performed on peripheral blood samples as previously reported. Zampell et al., PLoS ONE 7:e49940 (2012). Briefly, erythrocytes were lysed with RBC lysis buffer (Ebioscience, San Diego, Calif.) followed by staining with fluorophore-conjugated antibodies (CD45, CD3, and CD4; all from Biolegend, San Diego, Calif.) and analysis with a FACSCalibur flow cytometer (BD Biosciences, Franklin Lakes, N.J.) using FlowJo software (Tree Star, Ashland, Oreg.)."}, "[4]": {"tested_on": "blood vessel permeability", "assay": "Miles assay for vascular permeability after PLND", "assay_type": "in vivo", "settings": "topical tacrolimus 2 weeks, PLND mice, vs vehicle control", "experimental": "Additionally, to ensure that the observed effects of tacrolimus on lymphatic function were not a result of decreased vascular permeability and blood vessel leakage, we performed a Miles assay to measure blood vessel permeability following PLND surgeries with and without tacrolimus. […] In-vivo detection of ROS was performed by bioluminescent imaging of NADPH oxidase as described by Han et al. (J. Vis. Exp. doi: 10.3791/3925 (2012)). Briefly, mice were systemically injected with L-012 (an analogue of luminol) (20 μg/g) dissolved in PBS at different time points after PLND and luminescent signals representing ROS at the PLND surgery site were imaged and quantified using IVIS spectrum 200 (Xenogen Corporation). Miles assay for vascular permeability was performed as described. Radu et al., J. Vis. Exp. doi: 10.3791/50062 (2013). Briefly, 200 μl of 0.5% sterile Evans blue was injected via tail vein to 2 weeks tacrolimus treated PLND mice. After 30 min PLND hind limbs were imaged to observe Evans blue leakage. Hind limbs were excised and incubated in formamide for 48 hrs. at 55° C. to extract the Evans blue. Extracted Evans blue was quantified by measuring absorbance at 610 nm."}, "[5]": {"settings": "reference range; cited from earlier work"}, "[6]": {"tested_on": "mouse tail model of lymphedema", "assay": "Mouse tail model of lymphedema (tail volume, histology, immunostaining, lymphoscintigraphy, NIR imaging, PCR, ELISA)", "assay_type": "in vivo, C57BL/6J mice"}, "[7]": {"tested_on": "corneal lymphatic and blood vessels", "assay": "Corneal lymphangiogenesis assay (suture placement)", "assay_type": "in vivo, mice", "settings": "systemic tacrolimus 4 mg kg^−1 IP daily for 2 weeks after suture placement, vs vehicle", "text": "To determine the lymphangiogenic effects of tacrolimus in other inflammatory and wound models in which drainage of lymphatic fluid is not obstructed surgically, we next used two other models of inflammatory lymphangiogenesis. The cornea is a useful tissue for studying lymphangiogenesis because it is normally devoid of both blood and lymphatic vessels but develops both in the setting of inflammation. Cursiefen et al., J. Clin. Invest. 113:1040-1050 (2004). […] A corneal lymphangiogenesis assay was performed as previously reported. Cursiefen et al., Cornea 25:443-447 (2006). Briefly, 10-0 nylon sutures (Ethicon, Cincinnati, Ohio) were placed in the cornea at […]. Beginning immediately after suture placement, animals were treated with systemic tacrolimus or vehicle control daily for two weeks, followed by analysis using confocal microscopy (Leica Microsystems, Weitziar, Germany). […] Cutaneous lymphangiogenesis was assessed using an ear punch wound model as previously reported. […] Tile-scan images were obtained using a confocal microscope (Leica Microsystems, Weitziar, Germany) and skin within 400 μm of the wound edge was analyzed using Metamorph software (Molecular Devices, Sunnyvale, Calif.). Standardized (200 μm×200 μm) fields were analyzed for the number of branch points present per unit area by two blinded reviewers."}, "[8]": {"settings": "topical 0.1% tacrolimus twice daily for 2 weeks from 2 weeks after PLND, vs vehicle control"}, "[9]": {"settings": "topical 0.1% tacrolimus, vs control"}, "[10]": {"settings": "topical 0.1% tacrolimus, vs vehicle treated controls"}, "[11]": {"settings": "topical tacrolimus, vs vehicle treated controls"}, "[12]": {"settings": "topical 0.1% tacrolimus twice daily, early treatment (from 2 weeks after surgery for 4 weeks), vs vehicle control"}, "[13]": {"settings": "topical 0.1% tacrolimus twice daily, late treatment (from 6 weeks after surgery for 3 weeks), vs vehicle control"}, "[14]": {"settings": "topical 0.1% tacrolimus, early and late treatment, vs control"}, "[15]": {"settings": "topical 0.1% tacrolimus, early treatment, qPCR 6 weeks after injury, vs control"}, "[16]": {"settings": "topical 0.1% tacrolimus, early treatment, vs control"}, "[17]": {"settings": "topical 0.1% tacrolimus, late treatment, vs control"}}, "data": [{"smiles": "C=CC[C@@H]1/C=C(\\C)C[C@H](C)C[C@H](OC)[C@H]2O[C@@](O)(C(=O)C(=O)N3CCCC[C@H]3C(=O)O[C@H](/C(C)=C/[C@@H]3CC[C@@H](O)[C@H](OC)C3)[C@H](C)[C@@H](O)CC1=O)[C@H](C)C[C@@H]2OC", "note": "[tacrolimus]", "values": [{"measurement": "increase in collecting lymphatic packet frequency", "setting": "[1]; [8]", "value": "> 2", "unit": "fold"}, {"measurement": "lymphatic leakiness and dermal back flow of ICG", "setting": "[1]; [8]", "value": "markedly decreased"}, {"measurement": "collateral lymphatics draining towards the inguinal lymph node", "setting": "[1]; topical 0.1% tacrolimus, NIR imaging and IF staining, vs control", "value": "significantly more"}, {"measurement": "luminal area of hind limb collectors", "setting": "[1]; [9]", "value": "no differences"}, {"measurement": "number of alpha smooth muscles surrounding hind limb collecting lymphatics", "setting": "[1]; [9]", "value": "no differences"}, {"measurement": "reduction in perilymphatic CD4+ cells", "setting": "[1]; [10]", "value": 56, "unit": "%"}, {"measurement": "reduction in perilymphatic CD45+ cells", "setting": "[1]; [10]", "value": 39, "unit": "%"}, {"measurement": "reduction in perilymphatic F4/80+ cells", "setting": "[1]; [10]", "value": 36, "unit": "%"}, {"measurement": "reduction in the number of perilymphatic iNOS-expressing cells", "setting": "[1]; [10]", "value": 42, "unit": "%"}, {"measurement": "lymphatic contraction frequency", "setting": "[2]", "value": "did not increase"}, {"measurement": "perilymphatic accumulation of inflammatory cells", "setting": "[2]", "value": "did not increase"}, {"measurement": "blood T cells (CD3+)", "setting": "[3]; systemic tacrolimus 4 mg kg^−1 IP daily, vs vehicle control", "value": "significant reduction"}, {"measurement": "circulating CD4+ cells", "setting": "[3]; [11]", "value": "no changes"}, {"measurement": "circulating blood T cells (CD3+)", "setting": "[3]; [11]", "value": "no changes"}, {"measurement": "blood vessel permeability (Evans blue)", "setting": "[4]", "value": "no differences"}, {"measurement": "known therapeutic immunosuppressive levels achieved with systemic administration", "setting": "[5]", "value": "5 to 15", "unit": "ng/mL"}, {"measurement": "decrease in soft tissue thickness", "setting": "[6]; [12]", "value": "~50", "unit": "%"}, {"measurement": "decrease in tail volume", "setting": "[6]; [12]", "value": 95, "unit": "%"}, {"measurement": "soft tissue thickness", "setting": "[6]; [13]", "value": "highly effective in decreasing"}, {"measurement": "tail volume", "setting": "[6]; [13]", "value": "highly effective in decreasing"}, {"measurement": "Scar index (picrosirius red, ratio of collagen I/III)", "setting": "[6]; [14]", "value": "markedly decreased"}, {"measurement": "cellular expression of phosphorylated SMAD3 (pSMAD-3)", "setting": "[6]; [14]", "value": "markedly decreased"}, {"measurement": "dermal and subcutaneous type I collagen deposition", "setting": "[6]; [14]", "value": "markedly decreased"}, {"measurement": "expression of TGF-β1 (immunofluorescence)", "setting": "[6]; [14]", "value": "markedly decreased"}, {"measurement": "NIR (ICG) imaging: transport across the tail wound", "setting": "[6]; topical 0.1% tacrolimus, early treatment, 6 weeks after lymphatic ligation", "value": "rapid transport of interstitial fluid proximally across the tail wound"}, {"measurement": "IFN-γ mRNA expression in tail tissue", "setting": "[6]; [15]", "value": "significant decrease"}, {"measurement": "TGF-β1 mRNA expression in tail tissue", "setting": "[6]; [15]", "value": "significant decrease"}, {"measurement": "VEGF-C mRNA expression in tail tissue", "setting": "[6]; [15]", "value": "no differences"}, {"measurement": "increase in decay adjusted 99mTc uptake of the sacral lymph nodes", "setting": "[6]; [16]", "value": "more than 6 fold"}, {"measurement": "increase in newly formed lymphatic vessels (LYVE-1) bridging the zone of lymphatic injury", "setting": "[6]; [16]", "value": 189, "unit": "%"}, {"measurement": "reduction of CD45+ cells (leukocytes) infiltrating dermis and subcutaneous fat", "setting": "[6]; [16]", "value": 56, "unit": "%"}, {"measurement": "reduction of IFN-γ-producing cells", "setting": "[6]; [16]", "value": 54, "unit": "%"}, {"measurement": "reduction of infiltrating CD3+ cells", "setting": "[6]; [16]", "value": 53, "unit": "%"}, {"measurement": "reduction of infiltrating CD4+ cells", "setting": "[6]; [16]", "value": 78, "unit": "%"}, {"measurement": "reduction of soft tissue infiltration of macrophages (F4/80+ cells)", "setting": "[6]; [16]", "value": 86, "unit": "%"}, {"measurement": "increase in newly formed lymphatic vessels (LYVE-1) bridging the zone of lymphatic injury", "setting": "[6]; [17]", "value": 106, "unit": "%"}, {"measurement": "reduction of CD45+ cells (leukocytes) infiltrating dermis and subcutaneous fat", "setting": "[6]; [17]", "value": 49, "unit": "%"}, {"measurement": "reduction of IFN-γ-producing cells", "setting": "[6]; [17]", "value": 57, "unit": "%"}, {"measurement": "reduction of infiltrating CD3+ cells", "setting": "[6]; [17]", "value": 49, "unit": "%"}, {"measurement": "reduction of infiltrating CD4+ cells", "setting": "[6]; [17]", "value": 71, "unit": "%"}, {"measurement": "reduction of soft tissue infiltration of macrophages (F4/80+ cells)", "setting": "[6]; [17]", "value": 73, "unit": "%"}, {"measurement": "increase in 99mTc nodal uptake", "setting": "[6]; topical 0.1% tacrolimus, late treatment, vs control, did not reach statistical significance", "value": 2, "unit": "fold"}, {"measurement": "increase in proliferation of corneal lymphatic vessels (LYVE-1+)", "setting": "[7]", "value": 48, "unit": "%"}]}]}
